According to ChEMBL document CHEMBL1201862, “PubChem BioAssay data set” (2004):
Active and inactive are the calls of the source.

Legend:
Beta-galactosidase = Beta-galactosidase (Escherichia coli, UniProt Q8VNN2); assay: PubChem AID 485352; assay type: functional
BJ [1] = assay: cells; assay type: functional, cell-based; settings: Homo sapiens
Streptokinase A = biological target: T1, Streptokinase A (Streptococcus pyogenes serotype M1, UniProt P10520); assay: viability-normalized secreted streptokinase activity reduction – plasminogen activation absorbance, OD405, dose response (AID 1914); assay type: functional, Streptococcus pyogenes M1 GAS;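 also: secreted streptokinase activity via plasminogen activation per viability signal from cell pellet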
T1 sequence (P10520 whole entry): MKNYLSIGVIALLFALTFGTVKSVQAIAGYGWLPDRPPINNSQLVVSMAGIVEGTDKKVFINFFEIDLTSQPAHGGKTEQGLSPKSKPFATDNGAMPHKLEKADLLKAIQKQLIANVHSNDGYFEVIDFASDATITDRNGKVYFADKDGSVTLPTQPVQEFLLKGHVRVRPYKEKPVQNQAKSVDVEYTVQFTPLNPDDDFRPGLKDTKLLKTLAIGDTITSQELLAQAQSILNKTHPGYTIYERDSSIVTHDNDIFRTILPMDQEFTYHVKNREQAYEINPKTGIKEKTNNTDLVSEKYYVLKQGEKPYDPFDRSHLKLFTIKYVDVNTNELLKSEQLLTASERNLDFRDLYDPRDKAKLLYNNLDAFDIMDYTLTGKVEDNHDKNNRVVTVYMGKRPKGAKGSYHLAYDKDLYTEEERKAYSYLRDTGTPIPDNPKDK

[2] = DRD fibroblast viability loss – cell-based, non-viral oncogenic, luminescence, dose response (AID 1934); assay type: functional; settings: Homo sapiens
Streptococcus = assay: GAS UMAA2166 growth inhibition – luminescence, BacTiterGlo, counter-screen for streptokinase expression inhibitor project, dose response (AID 1915); assay type: functional, organism-based;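 also: potency for reduction of bacterial viability or growth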
[3] = viability loss in HepG2 hepatoma cells – cell-based, ATP luminescence, cherry-pick, activator set 2, cytotoxicity control, dose response (AID 1053143); assay type: functional
[4] = HEK-293T viability loss after treatment – luminescence, T-cell screen hits, cytotoxicity control for TCR NF-kB inhibitor project, dose response (AID 489026); assay type: functional, cell-based;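 also: cells exposed to compound about 14 hours before the viability readout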
BJ [5] = assay: growth inhibition of engineered Ras-driven BJ cells – cell-based, alamar blue fluorescence, cherrypicked samples, dose response (AID 2631); assay type: functional; settings: Homo sapiens;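 also: confirmatory dose-response assay in RAS-dependent BJ fibroblasts engineered with TERT, LT and ST, with cytotoxicity read by fluorescence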
BJ [6] = assay: BJ-TERT fibroblast viability loss – cell-based, RAS-independent, luminescence, dose response (AID 1933); assay type: functional; settings: Homo sapiens
BJ [7] = assay: BJ-TERT-LT-ST fibroblast viability loss – cell-based, RAS-independent, luminescence, dose response (AID 1935); assay type: functional; settings: Homo sapiens;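 also: BJ fibroblasts immortalized with TERT plus LT and ST oncogenes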
[8] = biological target: T2, Type-1 angiotensin II receptor (Homo sapiens, UniProt P30556); assay: antagonism of angiotensin II type 1 receptor – cell-based, uHTS hits, selectivity assay for APJ receptor antagonist project, dose response (AID 463214); assay type: functional;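 also: antagonist potency against angiotensin II stimulated AT1 response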
T2 sequence (P30556 whole entry): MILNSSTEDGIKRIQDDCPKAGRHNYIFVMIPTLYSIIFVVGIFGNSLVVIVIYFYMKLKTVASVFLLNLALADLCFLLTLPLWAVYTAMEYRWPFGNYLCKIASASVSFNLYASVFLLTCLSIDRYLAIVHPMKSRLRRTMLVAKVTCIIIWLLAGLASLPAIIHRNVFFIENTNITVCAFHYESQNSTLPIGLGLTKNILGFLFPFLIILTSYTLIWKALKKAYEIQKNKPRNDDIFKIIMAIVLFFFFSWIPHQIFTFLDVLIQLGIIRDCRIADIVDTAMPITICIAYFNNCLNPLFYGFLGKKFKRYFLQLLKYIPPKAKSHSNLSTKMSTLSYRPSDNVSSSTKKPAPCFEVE

[9] = system: Streptococcus sp. 'group A'; assay: Streptococcus pyogenes SK(-)GAS viability under kanamycin – luminescence, BacTiterGlo, confirmation, counter-screen for streptokinase expression inhibitor project, dose response (AID 1900); assay type: functional, organism-based
[10] = biological target: T3, Beta-adrenergic receptor kinase 1 (Homo sapiens, UniProt P25098); assay: aptamer displacement from bead-bound GRK2 – biochemical, cherry pick 1, bead flow cytometry, dose response (AID 504500)
T3 sequence (P25098 whole entry): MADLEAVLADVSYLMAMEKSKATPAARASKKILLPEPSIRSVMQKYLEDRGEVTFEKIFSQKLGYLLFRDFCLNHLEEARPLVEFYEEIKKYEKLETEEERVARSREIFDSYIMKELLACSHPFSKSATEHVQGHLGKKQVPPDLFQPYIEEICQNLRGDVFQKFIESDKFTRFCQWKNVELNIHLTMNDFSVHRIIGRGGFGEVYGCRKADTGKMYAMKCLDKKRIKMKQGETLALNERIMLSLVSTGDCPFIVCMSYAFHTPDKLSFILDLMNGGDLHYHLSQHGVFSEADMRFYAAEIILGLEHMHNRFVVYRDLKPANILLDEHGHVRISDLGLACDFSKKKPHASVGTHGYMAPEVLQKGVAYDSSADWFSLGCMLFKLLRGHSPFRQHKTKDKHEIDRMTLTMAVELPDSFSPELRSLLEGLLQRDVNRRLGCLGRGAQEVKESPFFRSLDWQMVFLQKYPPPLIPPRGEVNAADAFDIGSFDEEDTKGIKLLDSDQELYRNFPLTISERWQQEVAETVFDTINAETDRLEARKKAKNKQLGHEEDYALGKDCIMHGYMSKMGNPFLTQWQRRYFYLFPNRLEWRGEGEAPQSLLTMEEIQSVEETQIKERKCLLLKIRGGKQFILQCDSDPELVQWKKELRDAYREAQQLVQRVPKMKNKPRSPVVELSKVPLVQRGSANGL

[11] = biological target: T3, Beta-adrenergic receptor kinase 1; assay: blockers of aptamer binding to GRK2 – biochemical, flow cytometry beads, FAM-aptamer, powder set 1, dose response (AID 588720)
[12] = biological target: DNA dC->dU-editing enzyme APOBEC-3G (Homo sapiens, UniProt Q9HC16); assay type: functional;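 also: Dose-response counterscreen measuring inhibition of APOBEC3G DNA deaminase activity, run while confirming APOBEC3A inhibitors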
[13] = biological target: DNA dC->dU-editing enzyme APOBEC-3A (Homo sapiens, UniProt P31941); assay: Dose Response confirmation of small molecule APOBEC3A DNA Deaminase Inhibitors via a fluorescence-based single-stranded DNA deaminase assay. [Related pubchem assays (depositor defined):AID493011, AID493024]; assay type: functional
Estrogen receptor beta = Estrogen receptor beta (Homo sapiens, UniProt Q92731);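 also: recombinant ER-beta bound to coactivator SRC1 peptide in presence of estradiol agonist; inhibitors block coactivator peptide binding and lower the FRET signal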
DNA topoisomerase = DNA topoisomerase (Yersinia pestis, UniProt A0A2S9PM60); assay: Yersinia topoisomerase I cleavage product accumulation – biochemical, cherry-pick, dose response (AID 588525)
INS1 [14] = assay: INS-1E mitochondrial potential loss inhibitors – cell-based, JC-1 fluorescence, dry powder, set 2, dose response (AID 488867); assay type: functional; settings: Rattus norvegicus
INS1 [15] = assay: INS-1E mitochondrial potential rescue under cytokines – cell-based, JC-1 fluorescence ratio, dry powder, dose response (AID 488931); assay type: functional; settings: Rattus norvegicus
Phospholipase D1 = biological target: T4, Phospholipase D1 (Homo sapiens, UniProt Q13393); assay: cellular phospholipase D1 inhibition IC50 – cell-based, dose response (AID 602151); assay type: functional;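 also: cellular PLD1 assay in Calu-1 cells stimulated with PMA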
T4 sequence (Q13393 whole entry): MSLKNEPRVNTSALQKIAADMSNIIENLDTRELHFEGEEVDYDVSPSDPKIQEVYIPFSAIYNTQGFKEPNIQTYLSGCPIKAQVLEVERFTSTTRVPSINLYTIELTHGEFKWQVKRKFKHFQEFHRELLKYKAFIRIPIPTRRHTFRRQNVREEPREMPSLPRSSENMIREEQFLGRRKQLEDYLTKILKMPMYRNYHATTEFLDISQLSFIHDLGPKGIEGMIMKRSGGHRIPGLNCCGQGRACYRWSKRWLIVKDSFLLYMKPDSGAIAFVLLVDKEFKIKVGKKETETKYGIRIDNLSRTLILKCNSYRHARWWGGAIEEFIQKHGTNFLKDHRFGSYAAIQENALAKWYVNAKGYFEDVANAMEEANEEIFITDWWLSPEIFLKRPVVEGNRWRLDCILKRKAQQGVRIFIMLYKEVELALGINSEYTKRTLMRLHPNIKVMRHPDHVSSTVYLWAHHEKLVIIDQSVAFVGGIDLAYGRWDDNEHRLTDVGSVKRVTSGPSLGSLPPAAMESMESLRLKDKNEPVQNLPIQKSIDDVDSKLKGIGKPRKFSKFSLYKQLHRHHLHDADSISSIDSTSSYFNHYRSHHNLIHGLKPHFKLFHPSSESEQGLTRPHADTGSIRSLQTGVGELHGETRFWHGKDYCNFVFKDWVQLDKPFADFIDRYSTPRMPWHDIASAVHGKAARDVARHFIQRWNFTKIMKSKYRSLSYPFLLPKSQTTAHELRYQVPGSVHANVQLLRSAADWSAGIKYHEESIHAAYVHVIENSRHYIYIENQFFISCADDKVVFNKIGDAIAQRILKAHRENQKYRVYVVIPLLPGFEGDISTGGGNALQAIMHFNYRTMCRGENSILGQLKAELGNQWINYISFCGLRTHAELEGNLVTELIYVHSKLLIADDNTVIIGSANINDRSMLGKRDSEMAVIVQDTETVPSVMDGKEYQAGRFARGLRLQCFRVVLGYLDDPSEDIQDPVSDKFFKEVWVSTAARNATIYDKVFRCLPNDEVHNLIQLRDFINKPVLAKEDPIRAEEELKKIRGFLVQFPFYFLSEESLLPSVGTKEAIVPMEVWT

Phospholipase D2 = Phospholipase D2 (Homo sapiens, UniProt O14939); assay: cellular phospholipase D2 inhibition IC50 – cell-based, dose response (AID 602147); assay type: functional;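 also: cellular assay in HEK293 cells overexpressing GFP-tagged PLD2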
Phospholipase D2, sequence (O14939 whole entry): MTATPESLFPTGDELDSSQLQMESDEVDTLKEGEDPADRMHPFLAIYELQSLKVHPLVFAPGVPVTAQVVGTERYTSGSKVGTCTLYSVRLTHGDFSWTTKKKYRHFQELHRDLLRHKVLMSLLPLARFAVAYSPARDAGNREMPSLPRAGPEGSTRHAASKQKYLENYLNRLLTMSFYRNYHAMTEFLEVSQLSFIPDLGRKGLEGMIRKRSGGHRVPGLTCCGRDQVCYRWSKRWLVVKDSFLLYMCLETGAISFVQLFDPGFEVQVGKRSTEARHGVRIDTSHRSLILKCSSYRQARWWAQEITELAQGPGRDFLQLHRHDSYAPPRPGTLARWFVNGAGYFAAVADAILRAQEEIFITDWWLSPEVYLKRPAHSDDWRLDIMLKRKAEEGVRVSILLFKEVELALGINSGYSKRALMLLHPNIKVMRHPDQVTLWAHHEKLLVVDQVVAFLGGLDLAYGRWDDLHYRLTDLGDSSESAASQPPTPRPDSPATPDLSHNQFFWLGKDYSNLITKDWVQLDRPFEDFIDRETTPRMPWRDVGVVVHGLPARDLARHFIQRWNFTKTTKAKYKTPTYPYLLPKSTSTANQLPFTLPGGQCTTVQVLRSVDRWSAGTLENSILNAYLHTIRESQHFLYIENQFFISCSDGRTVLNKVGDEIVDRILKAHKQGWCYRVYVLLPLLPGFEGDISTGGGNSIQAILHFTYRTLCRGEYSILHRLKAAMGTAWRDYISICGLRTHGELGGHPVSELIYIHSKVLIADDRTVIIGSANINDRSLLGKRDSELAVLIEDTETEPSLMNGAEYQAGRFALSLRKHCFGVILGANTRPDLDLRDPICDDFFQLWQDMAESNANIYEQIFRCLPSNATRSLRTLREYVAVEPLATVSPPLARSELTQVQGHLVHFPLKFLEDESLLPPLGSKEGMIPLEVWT

Estrogen receptor beta, sequence (Q92731 whole entry): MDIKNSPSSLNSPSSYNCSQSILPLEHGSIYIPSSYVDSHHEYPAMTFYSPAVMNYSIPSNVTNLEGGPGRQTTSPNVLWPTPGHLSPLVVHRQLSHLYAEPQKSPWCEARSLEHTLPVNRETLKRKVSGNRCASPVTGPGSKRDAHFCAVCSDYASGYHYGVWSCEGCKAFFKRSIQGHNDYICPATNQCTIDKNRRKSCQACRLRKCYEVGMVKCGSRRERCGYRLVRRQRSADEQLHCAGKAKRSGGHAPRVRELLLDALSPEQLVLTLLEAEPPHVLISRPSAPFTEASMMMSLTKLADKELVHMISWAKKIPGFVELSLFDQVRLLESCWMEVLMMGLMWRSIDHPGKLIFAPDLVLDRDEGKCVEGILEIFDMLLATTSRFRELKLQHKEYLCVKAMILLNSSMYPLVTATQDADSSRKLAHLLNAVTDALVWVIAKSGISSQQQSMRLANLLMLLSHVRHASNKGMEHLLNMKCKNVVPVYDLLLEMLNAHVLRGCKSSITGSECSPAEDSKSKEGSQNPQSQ
DNA dC->dU-editing enzyme APOBEC-3G, sequence (Q9HC16 whole entry): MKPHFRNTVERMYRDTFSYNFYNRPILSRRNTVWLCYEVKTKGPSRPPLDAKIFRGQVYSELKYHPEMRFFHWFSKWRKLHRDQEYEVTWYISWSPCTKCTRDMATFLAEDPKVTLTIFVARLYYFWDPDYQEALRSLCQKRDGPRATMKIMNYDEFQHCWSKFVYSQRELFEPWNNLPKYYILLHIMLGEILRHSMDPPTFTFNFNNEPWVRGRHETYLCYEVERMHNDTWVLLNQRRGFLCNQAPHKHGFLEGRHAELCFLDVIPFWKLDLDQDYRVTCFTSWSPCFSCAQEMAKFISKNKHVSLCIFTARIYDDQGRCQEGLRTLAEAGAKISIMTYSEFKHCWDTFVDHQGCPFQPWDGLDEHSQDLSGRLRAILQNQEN
DNA dC->dU-editing enzyme APOBEC-3A, sequence (P31941 whole entry): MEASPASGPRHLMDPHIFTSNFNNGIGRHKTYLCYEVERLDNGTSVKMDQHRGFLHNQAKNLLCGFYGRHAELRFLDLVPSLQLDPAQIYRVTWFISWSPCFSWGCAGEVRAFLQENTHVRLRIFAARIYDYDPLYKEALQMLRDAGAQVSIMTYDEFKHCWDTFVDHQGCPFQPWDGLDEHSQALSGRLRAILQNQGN
Beta-galactosidase, sequence (Q8VNN2 whole entry): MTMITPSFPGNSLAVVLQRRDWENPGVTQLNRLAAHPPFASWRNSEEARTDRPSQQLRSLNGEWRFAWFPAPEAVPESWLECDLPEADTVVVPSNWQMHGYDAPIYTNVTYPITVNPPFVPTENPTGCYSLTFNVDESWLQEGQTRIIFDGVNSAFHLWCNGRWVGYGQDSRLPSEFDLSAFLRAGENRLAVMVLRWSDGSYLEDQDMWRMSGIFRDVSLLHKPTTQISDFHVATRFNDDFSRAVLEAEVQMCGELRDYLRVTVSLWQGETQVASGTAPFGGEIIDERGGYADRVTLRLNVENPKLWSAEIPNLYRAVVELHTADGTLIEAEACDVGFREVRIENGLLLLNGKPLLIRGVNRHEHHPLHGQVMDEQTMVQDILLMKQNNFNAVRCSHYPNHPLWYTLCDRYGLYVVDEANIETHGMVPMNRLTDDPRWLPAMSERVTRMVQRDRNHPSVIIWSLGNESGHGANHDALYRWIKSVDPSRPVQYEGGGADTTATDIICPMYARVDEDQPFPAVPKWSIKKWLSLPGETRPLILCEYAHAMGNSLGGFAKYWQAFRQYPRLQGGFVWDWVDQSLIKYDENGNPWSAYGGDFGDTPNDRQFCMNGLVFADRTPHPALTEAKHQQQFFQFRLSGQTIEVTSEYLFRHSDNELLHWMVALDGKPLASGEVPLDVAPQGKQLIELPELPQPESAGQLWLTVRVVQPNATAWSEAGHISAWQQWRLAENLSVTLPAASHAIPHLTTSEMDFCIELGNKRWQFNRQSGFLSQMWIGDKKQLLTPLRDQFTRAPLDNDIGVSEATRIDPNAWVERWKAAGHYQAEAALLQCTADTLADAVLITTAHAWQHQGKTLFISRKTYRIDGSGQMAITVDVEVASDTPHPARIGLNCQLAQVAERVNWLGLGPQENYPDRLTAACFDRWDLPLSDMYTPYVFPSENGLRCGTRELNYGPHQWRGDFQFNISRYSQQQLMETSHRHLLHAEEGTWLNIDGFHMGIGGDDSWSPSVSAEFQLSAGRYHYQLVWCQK
DNA topoisomerase, sequence (A0A2S9PM60 whole entry): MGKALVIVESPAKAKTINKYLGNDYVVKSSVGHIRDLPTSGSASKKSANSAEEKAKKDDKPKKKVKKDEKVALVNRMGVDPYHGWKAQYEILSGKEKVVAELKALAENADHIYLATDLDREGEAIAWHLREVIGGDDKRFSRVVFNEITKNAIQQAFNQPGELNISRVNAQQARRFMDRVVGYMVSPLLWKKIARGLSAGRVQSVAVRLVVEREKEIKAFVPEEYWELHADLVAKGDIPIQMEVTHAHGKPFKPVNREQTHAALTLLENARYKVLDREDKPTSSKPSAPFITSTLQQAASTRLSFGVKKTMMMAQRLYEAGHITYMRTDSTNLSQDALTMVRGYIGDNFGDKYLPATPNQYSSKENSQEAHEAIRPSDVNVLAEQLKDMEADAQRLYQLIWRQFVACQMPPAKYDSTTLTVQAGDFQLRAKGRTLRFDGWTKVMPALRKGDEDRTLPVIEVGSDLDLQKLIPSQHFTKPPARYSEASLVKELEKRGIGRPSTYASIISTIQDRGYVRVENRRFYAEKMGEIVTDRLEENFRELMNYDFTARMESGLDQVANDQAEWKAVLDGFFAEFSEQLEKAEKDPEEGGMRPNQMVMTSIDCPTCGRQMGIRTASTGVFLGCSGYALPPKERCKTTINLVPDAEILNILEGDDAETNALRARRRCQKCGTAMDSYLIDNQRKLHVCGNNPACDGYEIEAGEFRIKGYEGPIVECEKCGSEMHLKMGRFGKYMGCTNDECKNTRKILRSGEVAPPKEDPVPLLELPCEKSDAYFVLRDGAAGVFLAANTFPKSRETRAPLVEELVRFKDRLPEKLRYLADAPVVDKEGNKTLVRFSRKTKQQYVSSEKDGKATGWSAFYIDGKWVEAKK

## COc1cc(/C=C/c2ccc3cccc(O)c3n2)cc(OC)c1OC
Beta-galactosidase
  EC50: > 40 µM (inactive)
BJ [1]
  EC50: 47.8 µM (inconclusive)
Streptokinase A
  EC50: > 150 µM (not active)
[2]
  EC50: 1.5 µM (active)
Streptococcus
  EC50: 15.6 µM (active)
[3]
  AC50: 9.5 µM (active)
[4]
  IC50: > 80 µM (inactive)
BJ [5]
  EC50: 2.96 µM (inconclusive)
BJ [6]
  EC50: 1.26 µM (active)
BJ [7]
  EC50: 1.2 µM (inconclusive)
[8]
  IC50: 6.2 µM (active)
[9]
  EC50: 2.28 µM (active)

## Cc1cc(=O)[nH]c(SCC(=O)NCc2ccco2)n1
[10]
  EC50: 22.1 µM (inactive)
[11]
  EC50: 44.9 µM (active)
[12]
  IC50: 43.4 µM (active)
[13]
  IC50: 17.4 µM (active)
Estrogen receptor beta
  IC50: 6.27 µM (active)

## O=C(Nc1ccccc1Cl)OCC#CCOC(=O)Nc1ccccc1Cl
DNA topoisomerase
  AC50: 12.6 µM (active)

## COc1ccc(S(=O)(=O)N(C)C[C@@H]2Oc3c(NC(=O)Nc4cccc5ccccc45)cccc3C(=O)N([C@@H](C)CO)C[C@H]2C)cc1OC
INS1 [14]
  AC50: 116 µM (active)
INS1 [15]
  AC50: 85 µM (active)

## O=C(NCCN1CCC2(CC1)C(=O)NCN2c1cccc(F)c1)c1ccc2c(c1)C(=O)OC2=O
Phospholipase D1
  IC50: 5.55 µM (active)
Phospholipase D2
  IC50: 0.265 µM (active)
